# Values of other authors in patent publication US8318201B2, “Method of stabilizing diarylvinylene compound” (Kyowa Hakko Kirin Co., Ltd., priority 2003, dated 2012).
# Conditions: Bioorg. Med. Chem. Lett., vol. 7, p. 2349-2352 (1997); particularly unstable in a state of a solution
smiles,measurement,value
"CCn1c(=O)c2c(nc(/C=C/c3ccc(OC)c(OC)c3)n2C)n(CC)c1=O [Compound 1, (E)-8-(3,4-dimethoxystyryl)-1,3-diethyl-7-methyl-3,7-dihydro-1H-purine-2,6-dione]",stability under irradiation of light (isomerization at the vinylene moiety),unstable particularly under irradiation of light
